Counter-ions that a name gives are not always drawn.
Target: T1, URAT-1 transporter (Homo sapiens, UniProt Q96S37)
T1 construct: expressed in transfected cells
Assay: URAT-1 inhibitor activity: [14C]-uric acid uptake into CHO-URAT1(L)GFP#8 (CHO#8) cells, scintillation proximity
Assay type: cell-based
Procedure, shortened: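 Scintillation proximity read-out of 30 nM (final) [14C]-uric acid uptake over three hours at room temperature in chloride-free HEPES buffer pH 7.4. Compounds, 0–10 μM final with 0.25% DMSO, were added 15 minutes before substrate; cells were a clonal CHO line with human URAT1(L)-eGFP, preincubated 1 hour in chloride buffer.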

T1 sequence (Q96S37 with tags, fused parts or gaps): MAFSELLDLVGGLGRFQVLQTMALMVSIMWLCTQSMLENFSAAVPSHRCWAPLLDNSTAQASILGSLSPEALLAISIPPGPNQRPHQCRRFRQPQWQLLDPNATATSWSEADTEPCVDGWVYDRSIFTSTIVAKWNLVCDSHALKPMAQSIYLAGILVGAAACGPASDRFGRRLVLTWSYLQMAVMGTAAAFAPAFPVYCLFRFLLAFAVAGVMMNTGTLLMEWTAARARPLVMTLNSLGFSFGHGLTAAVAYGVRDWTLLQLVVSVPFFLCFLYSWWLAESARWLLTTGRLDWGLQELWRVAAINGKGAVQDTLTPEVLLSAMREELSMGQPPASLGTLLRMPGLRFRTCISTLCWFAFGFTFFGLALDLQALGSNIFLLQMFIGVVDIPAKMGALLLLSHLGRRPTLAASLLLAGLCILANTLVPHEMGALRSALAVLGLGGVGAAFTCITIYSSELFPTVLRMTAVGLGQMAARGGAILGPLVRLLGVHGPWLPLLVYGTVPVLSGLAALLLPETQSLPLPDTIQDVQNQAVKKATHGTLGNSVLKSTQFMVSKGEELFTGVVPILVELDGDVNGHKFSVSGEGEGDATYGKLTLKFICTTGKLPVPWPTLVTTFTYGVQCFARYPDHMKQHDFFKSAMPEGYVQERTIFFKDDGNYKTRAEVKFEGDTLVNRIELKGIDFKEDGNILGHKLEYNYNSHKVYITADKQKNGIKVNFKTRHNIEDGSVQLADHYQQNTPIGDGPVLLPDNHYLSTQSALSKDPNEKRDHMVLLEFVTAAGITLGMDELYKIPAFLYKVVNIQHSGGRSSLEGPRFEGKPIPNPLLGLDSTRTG

IC50 [µM] | Compound
> 5.78 | COc1cc(Cl)ccc1Oc1ccc(S(=O)(=O)Nc2nncs2)c(OC)c1 [Example 80, 4-(4-chloro-2-methoxyphenoxy)-2-methoxy-N-(1,3,4-thiadiazol-2-yl)benzenesulfonamide]
3.6 | COc1cc(Cl)ccc1Oc1ccc(S(=O)(=O)Nc2cscn2)c(Cl)c1 [Example 81, 2-chloro-4-(4-chloro-2-methoxyphenoxy)-N-(1,3-thiazol-4-yl)benzenesulfonamide diethylamine salt]
0.34 | COc1cc(Cl)ccc1Oc1ccc(S(=O)(=O)Nc2nncs2)c(Cl)c1 [Example 82, 2-chloro-4-(4-chloro-2-methoxyphenoxy)-N-(1,3,4-thiadiazol-2-yl)benzenesulfonamide diethylamine salt]
1.14 | O=S(=O)(Nc1nccs1)c1ccc(Oc2ncncc2Br)c(F)c1 [Example 83, 4-[(5-bromopyrimidin-4-yl)oxy]-3-fluoro-N-(1,3-thiazol-2-yl)benzenesulfonamide]
0.681 | N#Cc1cc(S(=O)(=O)Nc2ncc(Cl)s2)ccc1Oc1ccccc1F [Example 84, N-(5-chloro-1,3-thiazol-2-yl)-3-cyano-4-(2-fluorophenoxy)benzenesulfonamide]
0.845 | N#Cc1cc(S(=O)(=O)Nc2ncc(Cl)s2)ccc1Oc1ccccc1Cl [Example 85, 4-(2-chlorophenoxy)-N-(5-chloro-1,3-thiazol-2-yl)-3-cyanobenzenesulfonamide]
0.68 | N#Cc1cc(S(=O)(=O)Nc2ncc(Cl)s2)ccc1Oc1cc(Cl)ccc1Cl [Example 86, N-(5-chloro-1,3-thiazol-2-yl)-3-cyano-4-(2,5-dichlorophenoxy)benzenesulfonamide]
0.415 | N#Cc1cc(S(=O)(=O)Nc2ncc(Cl)s2)ccc1Oc1ccc(Cl)cc1F [Example 87, 4-(4-chloro-2-fluorophenoxy)-N-(5-chloro-1,3-thiazol-2-yl)-3-cyanobenzenesulfonamide]
> 6.72 | N#Cc1cc(S(=O)(=O)Nc2ncc(Cl)s2)ccc1Oc1ccc(C(F)(F)F)cc1 [Example 88, N-(5-chloro-1,3-thiazol-2-yl)-3-cyano-4-[4-(trifluoromethyl)phenoxy]benzenesulfonamide]
2.83 | N#Cc1cc(S(=O)(=O)Nc2ncc(Cl)s2)ccc1Oc1cccc(C(F)(F)F)c1 [Example 89, N-(5-chloro-1,3-thiazol-2-yl)-3-cyano-4-[3-(trifluoromethyl)phenoxy]benzenesulfonamide]
1.67 | COc1cc(OC)c(Oc2ccc(S(=O)(=O)Nc3ncc(Cl)s3)cc2C#N)c(OC)c1 [Example 90, N-(5-chloro-1,3-thiazol-2-yl)-3-cyano-4-(2,4,6-trimethoxyphenoxy)benzenesulfonamide]
2.63 | N#Cc1cc(S(=O)(=O)Nc2ncc(F)s2)ccc1Oc1ccc(Cl)cc1OC(F)(F)F [Example 91, 4-[4-chloro-2-(trifluoromethoxy)phenoxy]-3-cyano-N-(5-fluoro-1,3-thiazol-2-yl)benzenesulfonamide]
> 7.86 | N#Cc1cc(S(=O)(=O)Nc2ncc(F)s2)ccc1Oc1ccc(Cl)cc1C(F)(F)F [Example 92, 4-[4-chloro-2-(trifluoromethyl)phenoxy]-3-cyano-N-(5-fluoro-1,3-thiazol-2-yl)benzenesulfonamide]
> 1.61 | Cc1cc(F)ccc1Oc1ccc(S(=O)(=O)Nc2ncc(F)s2)cc1C#N [Example 93, 3-cyano-4-(4-fluoro-2-methylphenoxy)-N-(5-fluoro-1,3-thiazol-2-yl)benzenesulfonamide]
0.621 | N#Cc1cc(S(=O)(=O)Nc2ncc(F)s2)ccc1Oc1c(F)cccc1F [Example 94, 3-cyano-4-(2,6-difluorophenoxy)-N-(5-fluoro-1,3-thiazol-2-yl)benzenesulfonamide]
> 7.36 | CCc1ccc(Oc2ccc(S(=O)(=O)Nc3ncc(F)s3)cc2C#N)cc1 [Example 95, 3-cyano-4-(4-ethylphenoxy)-N-(5-fluoro-1,3-thiazol-2-yl)benzenesulfonamide]
0.675 | N#Cc1cc(S(=O)(=O)Nc2ncc(F)s2)ccc1Oc1ccccc1Cl [Example 96, 4-(2-chlorophenoxy)-3-cyano-N-(5-fluoro-1,3-thiazol-2-yl)benzenesulfonamide]
1.17 | CC(C)c1ccccc1Oc1ccc(S(=O)(=O)Nc2ncc(F)s2)cc1C#N [Example 97, 3-cyano-N-(5-fluoro-1,3-thiazol-2-yl)-4-[2-(propan-2-yl)phenoxy]benzenesulfonamide]
> 1.69 | N#Cc1cc(S(=O)(=O)Nc2ncc(F)s2)ccc1Oc1ccc(Cl)cc1 [Example 98, 4-(4-chlorophenoxy)-3-cyano-N-(5-fluoro-1,3-thiazol-2-yl)benzenesulfonamide]
1.63 | CCc1cccc(Oc2ccc(S(=O)(=O)Nc3ncc(F)s3)cc2C#N)c1 [Example 99, 3-cyano-4-(3-ethylphenoxy)-N-(5-fluoro-1,3-thiazol-2-yl)benzenesulfonamide]
0.554 | CCOc1cccc(Oc2ccc(S(=O)(=O)Nc3ncc(F)s3)cc2C#N)c1 [Example 100, 3-cyano-4-(3-ethoxyphenoxy)-N-(5-fluoro-1,3-thiazol-2-yl)benzenesulfonamide]

IC50 [µM] | Compound
1.76 | Cc1ccc(Oc2ccc(S(=O)(=O)Nc3ncc(F)s3)cc2C#N)c(C)c1 [Example 101, 3-cyano-4-(2,4-dimethylphenoxy)-N-(5-fluoro-1,3-thiazol-2-yl)benzenesulfonamide]
1.43 | N#Cc1cc(S(=O)(=O)Nc2ncc(F)s2)ccc1Oc1cc(F)ccc1F [Example 102, 3-cyano-4-(2,5-difluorophenoxy)-N-(5-fluoro-1,3-thiazol-2-yl)benzenesulfonamide]
> 6.78 | CC(C)c1ccc(Oc2ccc(S(=O)(=O)Nc3ncc(F)s3)cc2C#N)cc1 [Example 103, 3-cyano-N-(5-fluoro-1,3-thiazol-2-yl)-4-[4-(propan-2-yl)phenoxy]benzenesulfonamide]
2.62 | N#Cc1cc(S(=O)(=O)Nc2ncc(F)s2)ccc1Oc1ccccc1F [Example 104, 3-cyano-4-(2-fluorophenoxy)-N-(5-fluoro-1,3-thiazol-2-yl)benzenesulfonamide]
> 1.79 | Cc1ccc(F)cc1Oc1ccc(S(=O)(=O)Nc2ncc(F)s2)cc1C#N [Example 105, 3-cyano-4-(5-fluoro-2-methylphenoxy)-N-(5-fluoro-1,3-thiazol-2-yl)benzenesulfonamide]
> 1.34 | N#Cc1cc(S(=O)(=O)Nc2ncc(F)s2)ccc1Oc1cc(F)cc(F)c1 [Example 106, 3-cyano-4-(3,5-difluorophenoxy)-N-(5-fluoro-1,3-thiazol-2-yl)benzenesulfonamide]
> 6.78 | CC(C)c1cccc(Oc2ccc(S(=O)(=O)Nc3ncc(F)s3)cc2C#N)c1 [Example 107, 3-cyano-N-(5-fluoro-1,3-thiazol-2-yl)-4-[3-(propan-2-yl)phenoxy]benzenesulfonamide]
0.345 | CCc1ccccc1Oc1ccc(S(=O)(=O)Nc2ncc(F)s2)cc1C#N [Example 108, 3-cyano-4-(2-ethylphenoxy)-N-(5-fluoro-1,3-thiazol-2-yl)benzenesulfonamide]
0.552 | COc1cccc(Oc2ccc(S(=O)(=O)Nc3ncc(F)s3)cc2C#N)c1 [Example 109, 3-cyano-N-(5-fluoro-1,3-thiazol-2-yl)-4-(3-methoxyphenoxy)benzenesulfonamide]
> 7.54 | N#Cc1cc(S(=O)(=O)Nc2ncc(F)s2)ccc1Oc1cccc(Cl)c1 [Example 110, 4-(3-chlorophenoxy)-3-cyano-N-(5-fluoro-1,3-thiazol-2-yl)benzenesulfonamide]
0.871 | N#Cc1cc(S(=O)(=O)Nc2ncc(F)s2)ccc1Oc1ccc(F)c(Cl)c1 [Example 111, 4-(3-chloro-4-fluorophenoxy)-3-cyano-N-(5-fluoro-1,3-thiazol-2-yl)benzenesulfonamide]
4.03 | Cc1ccccc1Oc1ccc(S(=O)(=O)Nc2ncc(F)s2)cc1C#N [Example 112, 3-cyano-N-(5-fluoro-1,3-thiazol-2-yl)-4-(2-methylphenoxy)benzenesulfonamide]
1.12 | N#Cc1cc(S(=O)(=O)Nc2ncc(F)s2)ccc1Oc1cc(F)c(F)cc1F [Example 113, 3-cyano-N-(5-fluoro-1,3-thiazol-2-yl)-4-(2,4,5-trifluorophenoxy)benzenesulfonamide]
4.41 | N#Cc1cc(S(=O)(=O)Nc2ncc(F)s2)ccc1Oc1cccc(F)c1F [Example 114, 3-cyano-4-(2,3-difluorophenoxy)-N-(5-fluoro-1,3-thiazol-2-yl)benzenesulfonamide]
1.63 | N#Cc1cc(S(=O)(=O)Nc2ncc(F)s2)ccc1Oc1c(F)ccc(F)c1F [Example 115, 3-cyano-N-(5-fluoro-1,3-thiazol-2-yl)-4-(2,3,6-trifluorophenoxy)benzenesulfonamide]
> 5.31 | N#Cc1cc(S(=O)(=O)Nc2ncc(F)s2)ccc1Oc1ccc(Cl)cc1F [Example 116, 4-(4-chloro-2-fluorophenoxy)-3-cyano-N-(5-fluoro-1,3-thiazol-2-yl)benzenesulfonamide]
1.44 | Cc1cc(Cl)ccc1Oc1ccc(S(=O)(=O)Nc2ncc(F)s2)cc1C#N [Example 117, 4-(4-chloro-2-methylphenoxy)-3-cyano-N-(5-fluoro-1,3-thiazol-2-yl)benzenesulfonamide]
1.38 | N#Cc1cc(S(=O)(=O)Nc2ncc(F)s2)ccc1Oc1cc(F)c(F)c(F)c1 [Example 118, 3-cyano-N-(5-fluoro-1,3-thiazol-2-yl)-4-(3,4,5-trifluorophenoxy)benzenesulfonamide]
1.57 | N#Cc1cc(S(=O)(=O)Nc2ncc(F)s2)ccc1Oc1cccc(Cl)c1F [Example 119, 4-(3-chloro-2-fluorophenoxy)-3-cyano-N-(5-fluoro-1,3-thiazol-2-yl)benzenesulfonamide]
1.32 | Cc1ccc(Oc2ccc(S(=O)(=O)Nc3ncc(F)s3)cc2C#N)c(F)c1F [Example 120, 3-cyano-4-(2,3-difluoro-4-methylphenoxy)-N-(5-fluoro-1,3-thiazol-2-yl)benzenesulfonamide]

— US20140315933A1, “CHEMICAL COMPOUNDS” (Pfizer Limited, priority 2013, published 2014)
